From PubChem BioAssay AID624404 (Broad Institute, 2012)
Records with an inconclusive call do not appear.

The compounds below were run on D54 LucT luciferase reporter counterscreen, luminescence, 24 h (assay: luciferase activators in glycosylation-insensitive reporter cells, dose response, counter-screen for N-linked glycosylation inhibitor project, D54 LucT cells, luminescence, cherry pick (AID 624404)).
CNC(=O)c1cccn(Cc2ccc(C(F)(F)F)cc2)c1=O was tested, and the AC35 was 1240 nM.
In the case of NS(=O)(=O)c1ccc(NC(=O)c2cccc3cc4ccccc4nc23)cc1, the AC35 is reported as 6580 nM.
C[C@@]12C(=O)Nc3cc(F)c(F)cc3C(=O)N1[C@H]1c3ccccc3OC[C@@H]1[C@@H]2c1ccccc1 was tested, and the AC35 was 746 nM.
For CCCC(=O)Nc1nc2ccc(NC(=O)c3c(F)c(F)c(OC)c(F)c3F)cc2s1, the AC35 was 2270 nM.
For COc1ccc2c(c1)OC[C@H]1[C@H]2N2C(=O)c3ccc(C)cc3NC(=O)[C@@]2(C)[C@H]1c1ccccc1, the AC35 was 658 nM.
Cc1c(Cl)cccc1Nc1nc(N)nc(CN2CCc3ccccc3C2)n1 was tested, and the AC35 was 614 nM.
COC(=O)c1ccc2c(=O)n(Cc3ccc(C(=O)NC(C)C)cc3)c(=S)[nH]c2c1 showed an AC35 of 4280 nM.
Work on C[C@@]12C(=O)Nc3cc(Cl)ccc3C(=O)N1[C@H]1c3cc(Br)ccc3OC[C@@H]1[C@@H]2c1ccccc1 yielded an AC35 of 2550 nM.
Compound CCOc1ccc(Nc2nc(N(C)c3ccccc3)nc(N)c2[N+](=O)[O-])cc1 has an AC35 of 128 nM.
CCOC(=O)C1CCN(c2c(N3CCN(Cc4ccccc4)CC3)c(=O)c2=O)CC1 was tested, and the AC35 was 1220 nM.
Cc1cccc(N2CCN(C(=O)c3cc(S(=O)(=O)N4CCCC4)cn3C)CC2)c1C was tested, and the AC35 was 33.3 nM.
With COc1cc(C(=O)Nc2cc(C(F)(F)F)ccc2N2CCOCC2)ccc1OCC(=O)N1CCOCC1 the AC35 was 2130 nM.
Compound Cc1ccc(O)c(C(=O)C=Cc2ccccc2)c1 has an AC35 of 8.29 nM.
With O=C(Nc1cccc(-c2cn3ccccc3n2)c1)c1cccc(Cl)c1 the AC35 was 2150 nM.
For O=C(Nc1ccccc1)N(CCN1CCOCC1)Cc1ccccc1F, the AC35 was 2370 nM.
Compound CC(C)(C)OC(=O)[C@H](Cc1ccccc1)NC(=O)c1nc[nH]c1C(=O)N1CCc2ccccc2C1 has an AC35 of 2550 nM.
Cc1ccc(Nc2nc(-c3sc(C)nc3C)cs2)cc1 gave an AC35 of 46.9 nM.
C[C@@H](NC(=O)c1nc[nH]c1C(=O)N1CCN(c2ccccc2)CC1)c1ccccc1 showed an AC35 of 1830 nM.
Compound CCOc1nc(N=C(N)N)nc2c(C)cccc12 has an AC35 of 603 nM.
COC1C(O)C(C)OC(OC2C(Oc3cccc4c(O)c5c(=O)oc6ccc(C)c7c(=O)oc(c34)c5c67)OC(C)C(O)C2O)C1O (configuration not stated) was tested, and the AC35 was 376 nM.
Work on O=C(Nc1ccc(Cc2ccncc2)cc1)c1ccc([N+](=O)[O-])o1 yielded an AC35 of 2680 nM.
Work on CC(C)/C=C1\CC/C(=C\c2cccnc2)C1=O yielded an AC35 of 9160 nM.
Work on Cc1nnc2c3ccccc3c(-c3cccs3)nn12 yielded an AC35 of 312 nM.
C[C@]1(O)CC(=O)C=C[C@H]1Nc1ccccc1 was tested, and the AC35 was 1970 nM.
c1ccc2c(-c3nc4ccccc4[nH]3)cccc2c1 was tested, and the AC35 was 911 nM.
With O=C(/C=C/c1ccccc1)c1ccccc1 the AC35 was 1200 nM.
Work on COc1ccc(Sc2nnc(Cc3ccccc3)c3ccccc23)cc1 yielded an AC35 of 4370 nM.
Compound COc1cccc(C(NC(C)=O)c2nc(-c3ccccc3C)cs2)c1 (configuration not stated) has an AC35 of 678 nM.
Compound Nc1c(C(=O)c2ccccc2)sc2nsc(SCCN3CCOCC3)c12 has an AC35 of 57.8 nM.
Cc1ccc(-c2cc(C(=O)Nc3ccncc3)c3ccccc3n2)cc1 gave an AC35 of 4300 nM.
In the case of CCN1C(=O)Nc2cccc3cccc1c23, the AC35 is reported as 3140 nM.
With CC[C@]12c3[nH]c4cc(CCC(=O)N(C)C)ccc4c3CCN1C(=O)[C@@H](CC(=O)NC/C=C(\C)CCC=C(C)C)C[C@@H]2C(=O)N1CCN(C(=O)c2ccco2)CC1 the AC35 was 267 nM.
For COc1cc(C(=O)NC2CCN(C)CC2)ccc1Nc1ncc2c(n1)N(CCc1ccccc1)CCC(=O)N2C, the AC35 was 172 nM.
With O=C(COc1ccc(/C=N/NC(=O)c2cc3ccccc3o2)cc1Br)Nc1ccccc1 the AC35 was 27 nM.
COc1cc2c(cc1OC)C(c1ccccc1)N(C(=O)c1cccc(S(C)(=O)=O)c1)CC2 (configuration not stated) gave an AC35 of 212 nM.
Compound Cn1c(=O)n(C)c2cc(NS(=O)(=O)c3ccc(F)cc3)ccc21 has an AC35 of 1240 nM.
CC(=O)Nc1cc(-c2cccc(C(=O)N(C)C)c2)cn2c(-c3cccc(C(=O)N(C)C)c3)cnc12 was tested, and the AC35 was 1740 nM.
COc1ccc(/C=N/NC(=O)c2cccc(NC(=O)c3ccccc3Cl)c2)cc1 showed an AC35 of 495 nM.
In the case of COc1ccc(CNC(=O)C/C(C)=N/NC(=O)COc2ccc(C)cc2Br)cc1, the AC35 is reported as 3090 nM.
In the case of Cc1ccc2c(c1)C(=O)N1[C@H]3c4cc(Br)ccc4OC[C@@H]3[C@H](c3ccccc3)[C@]1(C)C(=O)N2, the AC35 is reported as 241 nM.
In the case of O=C(CCN1C(=O)/C(=C\c2ccccc2)SC1=S)N1CCCCC1, the AC35 is reported as 6190 nM.
Work on Cc1cc(C)nc(/N=C(\N)Nc2ccc(CC(=O)OC(C)C)cc2)n1 yielded an AC35 of 1680 nM.
CC(C)C1N=C(c2ccc3c(c2)OCO3)CC(c2ccccc2O)N1 (configuration not stated) showed an AC35 of 3510 nM.
Cc1ccc(C(=O)c2coc3c2C(=O)C(=O)c2ccccc2-3)cc1 gave an AC35 of 4050 nM.
COC(=O)c1cc(=O)n(-c2ccc(F)cc2)c(=Nc2ccc(F)cc2)s1 gave an AC35 of 25.1 nM.
Work on Cc1cc(-c2nnc3n2N=C(c2ccc(-c4ccccc4)cc2)CS3)n[nH]1 yielded an AC35 of 1260 nM.
Work on CN(CCCNC(=O)CCCOc1cc(=O)n(C)c2ccccc12)Cc1ccccc1 yielded an AC35 of 5230 nM.
CCC(C)[C@H](NC(=O)N1CC(=O)Nc2ccccc21)C(=O)Nc1ccccc1C (some centres not stated) gave an AC35 of 2750 nM.
With COc1ccc(/C=N/NC(=O)c2ccccc2OCc2ccccc2)c(OC)c1 the AC35 was 1600 nM.
Work on CCN1C(=O)c2cccc3c(S(=O)(=O)Nc4ccccn4)ccc1c23 yielded an AC35 of 1860 nM.
For CC(=O)c1ccc(Nc2nc(-c3sc(C)nc3C)cs2)cc1, the AC35 was 17.3 nM.
Compound COc1ccc(/C=C2\SC(=O)N(CCNC(=O)C3=COCCO3)C2=O)cc1 has an AC35 of 854 nM.
Work on COc1ccc2c(c1)[C@H]1[C@H](CO2)[C@H](c2ccccc2)[C@]2(C)C(=O)Nc3cc(F)c(F)cc3C(=O)N12 yielded an AC35 of 469 nM.
Compound COc1ccc(/C=C/C(=O)c2c(O)cc(OC)cc2OC)cc1 has an AC35 of 3210 nM.
In the case of O=C(COC(=O)Cn1cnc2ccccc21)Nc1cccc2c1C(=O)c1ccccc1C2=O, the AC35 is reported as 459 nM.
With Cc1cc(C)cc(N=Cc2ccc([N+](=O)[O-])s2)c1 the AC35 was 724 nM.
For COc1cc(Nc2c3ccccc3nc3ccccc23)cc(OC)c1OC, the AC35 was 4160 nM.
CCOc1ccc(C(=O)n2cc(C(=O)OC)c3ccccc32)cc1 gave an AC35 of 6030 nM.
With O=C(Nc1ccncc1)C1CCCN(S(=O)(=O)c2cccc3cccnc23)C1 (configuration not stated) the AC35 was 4670 nM.
With Cn1c(-c2ccccc2)c(/C=N/NC(=O)c2ccc(O)cc2)c2ccccc21 the AC35 was 319 nM.
C(=C\c1nccc2c1[nH]c1ccccc12)/c1ccccc1 was tested, and the AC35 was 7.01 nM.
For Cc1ccc(S/C=C\C(=O)c2ccccc2)cc1, the AC35 was 135 nM.
Work on COc1cc(-c2coc3c(C(=O)NCc4ccc(OC)c(OC)c4)cccc23)ccc1O yielded an AC35 of 2800 nM.
Cn1c(=O)c2cc(NC(=O)CCc3ccccc3)ccc2n1-c1ccccc1F showed an AC35 of 2980 nM.
With O=C(NCCN1C(=O)S/C(=C\c2ccccc2F)C1=O)C1=COCCO1 the AC35 was 214 nM.
With O=C(C[C@H]1C/C=C\C[C@H](Cc2ccc(F)cc2)C(=O)O[C@@H](c2ccccc2)CNC1=O)N[C@@H](CO)Cc1ccccc1 the AC35 was 575 nM.
With O=C(NCCc1ccccc1)c1cc(-c2ccco2)on1 the AC35 was 1010 nM.
Cc1ccc(S(=O)(=O)c2cc3c(=O)n4ccccc4nc3n(CCc3ccccc3)c2=N)cc1 showed an AC35 of 75.9 nM.
Cn1c(=O)[nH]c(=O)c2c1nc(N1CCN(Cc3ccccc3)CC1)n2CCCc1ccccc1 gave an AC35 of 465 nM.
CCOC(=O)c1[nH]c(C)c(C(=O)c2ccc(C)cc2)c1C gave an AC35 of 1100 nM.
O=C(c1cn(Cc2ccccc2)nc1-c1ccccc1)N1CCN(c2ccccn2)CC1 was tested, and the AC35 was 984 nM.
Work on COc1ccc(Nc2cc(C)nc(-n3nc(C)cc3C)n2)cc1 yielded an AC35 of 150 nM.
COc1ccc(C(=O)/C=C/c2ccc(-c3ccccc3)cc2)cc1CSCC(=O)O was tested, and the AC35 was 875 nM.
Work on O=c1cc(-c2ccccc2)[nH]c2ccccc12 yielded an AC35 of 2480 nM.
CC(C)(C)S(=O)(=O)N1C[C@@H]2CC/C=C\C/C(c3ccccc3)=C\2[C@H]1CCO was tested, and the AC35 was 645 nM.
In the case of COc1ccccc1N=CC1=C(O)CC(c2ccccc2)CC1=O (configuration not stated), the AC35 is reported as 173 nM.
For CCOc1ncccc1C(=O)Nc1cc2c(cc1Br)OCCO2, the AC35 was 169 nM.
O=C(NO)c1ccc(OC(F)F)cc1 was tested, and the AC35 was 1520 nM.
With COc1ccc2c(c1)C(=O)N1[C@H]3c4cc(Cl)ccc4OC[C@@H]3[C@H](c3ccccc3)[C@]1(C)C(=O)N2 the AC35 was 981 nM.
For CCn1ncc(C2=NOC(C(=O)NCc3ccc(Cl)cc3)C2)c1C (configuration not stated), the AC35 was 14700 nM.
In the case of Cc1ccc(C2=NN(C(=O)CSc3nccn3C)C(c3ccco3)C2)cc1 (configuration not stated), the AC35 is reported as 323 nM.
With CCCCNC(=O)c1cc(-c2ccc(F)cc2)on1 the AC35 was 806 nM.
In the case of CCOc1ccc2c(c1)OC(c1ccc(OC)cc1)(C(F)(F)F)NC2=O (configuration not stated), the AC35 is reported as 748 nM.
Cc1ccc2nc(Cl)c(/C=C/C(=O)c3ccco3)cc2c1 gave an AC35 of 1530 nM.
Compound Cn1c(SCC(=O)c2ccccc2)ncc(C(=O)Nc2ccccc2)c1=O has an AC35 of 382 nM.
Compound COc1ccccc1CCNCc1ccc(OC)c(OCc2ccccc2)c1 has an AC35 of 1170 nM.
Compound COc1ccccc1NS(=O)(=O)c1ccc(C(=O)Nc2ncccc2O)cc1 has an AC35 of 8860 nM.
With COc1cccc(C(=O)Nc2ncc3c(n2)CC(c2ccc(OC)cc2OC)CC3=O)c1 (configuration not stated) the AC35 was 7610 nM.
In the case of O=C(NC1CCCCC1)c1ccc([N+](=O)[O-])o1, the AC35 is reported as 1370 nM.
Work on COc1ccc(NC(=O)C2Cc3c(-c4cccc(NC(C)=O)c4)ccnc3O2)cc1 (configuration not stated) yielded an AC35 of 18.9 nM.
CC(C)(C)S(=O)(=O)N1C[C@H]2CC/C=C\C/C(c3ccccc3)=C\2[C@@H]1CCO showed an AC35 of 536 nM.
CC(=O)Nc1ccc(CC(=O)NCCC(c2ccccc2)c2ccccc2)cc1 was tested, and the AC35 was 7670 nM.
CCOc1cc(-c2c(C#N)c(N)nc3c2CCc2ccccc2-3)ccc1O showed an AC35 of 3850 nM.
Compound NC(=O)CC(NC(=O)Cc1ccc(Br)cc1)c1ccc(NC2CC3CCC2C3)c([N+](=O)[O-])c1 (configuration not stated) has an AC35 of 210 nM.
COc1ccc(S(=O)(=O)NCc2ccccn2)cc1NC(=O)c1ccccc1 was tested, and the AC35 was 834 nM.
In the case of O=C(Nc1ncccc1O)c1ccc(S(=O)(=O)Nc2ccccc2)cc1, the AC35 is reported as 2190 nM.
With CSCCOC(=O)c1[nH]c2c(c1C)C(=O)CC(c1ccco1)C2 (configuration not stated) the AC35 was 627 nM.
Nc1ccc(C(=O)Nc2ccccc2N)cc1 gave an AC35 of 744 nM.
Work on CCn1c2ccccc2c2cc(NC(=O)COC(=O)c3ccccc3F)ccc21 yielded an AC35 of 4220 nM.
COc1ccccc1CCC(=O)Nc1ccc2c(c1)c(=O)n(C)n2-c1cccs1 showed an AC35 of 2330 nM.
COC(=O)Nc1nc2ccc(-c3n[nH]c(=O)c4ccccc34)cc2[nH]1 was tested, and the AC35 was 282 nM.
Cc1ccc(C(=O)N/C(=C/c2cccs2)C(=O)NCCc2c[nH]c3ccccc23)cc1 was tested, and the AC35 was 1170 nM.
Nc1nc(CN2CCN(Cc3ccccc3)CC2)nc(Nc2ccc3c(c2)OCCO3)n1 gave an AC35 of 251 nM.
O=C(COc1ccccc1CNCc1ccccc1)Nc1ccccc1 gave an AC35 of 890 nM.
Compound COc1cc(NC(=O)c2ccc(-c3c(C)noc3C)c3ccoc23)cc(OC)c1OC has an AC35 of 58.2 nM.
Cc1noc(C)c1-c1ccc(C(=O)NCc2cccnc2)c2occc12 showed an AC35 of 297 nM.
O=C1Cc2c([nH]c3ccc([N+](=O)[O-])cc23)-c2ccccc2N1 gave an AC35 of 894 nM.
